Measured values reported in patent US20250295717A1, “RE[…] OF R[…] VIRUS, COMBINATION, AND APPLICATION THEREOF” (NEUREGEN BIOTHERAPEUTICS (SHANGHAI) CO. LTD, priority 2022, published 2025).

Tests used:
[1] = system: human glioma U87 cells subcutaneous implantation; assay: Subcutaneous U87 glioma model, combination with temozolomide (Example 5); format: in vivo, mouse
Experimental: (§1) For the subcutaneous glioma model, human U87 glioma cells were cultured, and during the logarithmic growth phase, they were inoculated into the axillae of nude mice. After two passages, the tumor tissue was collected under sterile conditions, and the tumor mass was cut into uniform small pieces approximately the size of grains of rice, which were then inoculated subcutaneously in the axillae of nude mice using an implantation needle. Once the tumor grew to approximately 100 mm^3, the mice were randomly grouped, and the treatment began. All samples were dissolved in PBS, with an injection volume of 50 μL/tumor. The length and width of the tumor were measured every three days, and the tumor volume was calculated using the formula: […]
In this example, a subcutaneous implantation model using human glioma U87 cells in BALB/c nu/nu mice was adopted. U87 human glioblastoma cells were inoculated into the armpits of the nude mice during the logarithmic growth phase. When the tumor grew to approximately 100 mm^3, appropriate tumor-bearing mice were randomly grouped. After grouping, treatment commenced, with the PBS group serving as the control. The Ad5-AN group received a dose of 1×10^9 PFU, while the temozolomide (TMZ) gavage group received 15 mg/kg once daily for five days, followed by two days off. Additionally, there was a combination treatment group of Ad5-AN and temozolomide (Ad5-AN+TMZ), with Ad5-AN administered every two days for a total of five doses. Tumor volume was measured every three days, and later, the animals were euthanized to weigh the tumors and perform biochemical and molecular analyses.

[2] = system: human glioblastoma U87 ectopic implantation; assay: Human glioblastoma U87 BALB/CA-nu mouse ectopic implantation model, recombinant HSV (Example 8); format: in vivo
Experimental: as §1
In this implementation, type 1 herpes simplex virus (HSV) was used as an oncolytic virus vector, with fragments from human Ascl1 (SEQ ID No. 11) and the coding sequence (CDS) of human Ngn2 (SEQ ID No. 15) inserted to achieve efficient co-expression of Ascl1 and Ngn2. After packaging and purifying the recombinant HSV, tests were conducted using a human glioblastoma U87 BALB/CA-nu mouse ectopic implantation model. […] Tumor volume was measured every three days, and later, the animals were euthanized to weigh the tumors and perform biochemical and molecular analyses. […]

[3] = system: glioma cells (U87-luc) implanted into the brain; assay: Brain orthotopic glioma model U87-luc (Example 6); format: in vivo, mouse; details: Ad5-AN 1×10^9 PFU every four days, three doses, TMZ 15 mg/kg, PBS group 22.3 days
Experimental: For the orthotopic glioma model, 7-week-old NOD-scid mice were used. Human glioma cells, either induced with […] or not induced, were centrifuged to remove the supernatant, resulting in a cell density of approximately 2.5×10^5 cells/μL. A total of 2 μL (5×10^5 cells) was implanted into the striatum of each mouse. After three weeks, histological analysis or viral injection was performed, followed by immunohistochemical detection.
In this example, glioma cells (U87-luc) were first implanted into the brain (5×10^5 cells). After 7 days of implantation, the mice were grouped for treatment, with the PBS group serving as the control. The Ad5-AN group received a dose of 1×10^9 PFU, while the temozolomide (TMZ) gavage group received 15 mg/kg once daily for five days, followed by two days off. Additionally, there was a combination treatment group of Ad5-AN and temozolomide, with Ad5-AN administered every four days for a total of three doses.

[4] = system: human glioma tissue PDX; assay: Patient-derived tumor xenograft (PDX) model from human glioma tissue (Example 7); format: in vivo, mouse
Experimental: To further validate the combined effect of oncolytic viruses and redifferentiation therapy, this implementation was tested in a patient-derived tumor xenograft (PDX) model constructed from human glioma tissue. PDX tissues were inoculated into the armpits of nude mice for passaging, and when they reached the logarithmic growth phase, they were re-inoculated into the armpits of nude mice. When the tumor grew to approximately 100 mm^3, appropriate tumor-bearing mice were randomly grouped. After grouping, treatment commenced, with the PBS group serving as the control. The Ad5-AN group received a dose of 1×10^9 PFU, while the temozolomide (TMZ) gavage group received 15 mg/kg once daily for five days, followed by two days off. Additionally, there was a combination treatment group of Ad5-AN and temozolomide, with Ad5-AN administered every two days for a total of five doses. Tumor volume was measured every three days, and later, the animals were euthanized to weigh the tumors and perform biochemical and molecular analyses.

[5] = U87 subcutaneous, extended experiment

With `Cn1nnc2c(C(N)=O)ncn2c1=O` [temozolomide] the “time at which tumor growth approached 2000 mm^3” value [1, 5] was “around 60 days”, the “time at which tumors gradually relapsed post-treatment” value [1, 5] was “around 35 days” and the “tumor recurrence after 56 days” value ([1]; mice with recurrence / seven mice, FIG. 5) was 7/7. The tumor volume decrease ([2]; after 10 days of treatment, HSV 2×10^6 PFU every two days, five doses, TMZ 15 mg/kg) was 73.6%, the tumor recurrence ([2]; after two months) was 6/6 and the average survival [3] was 56.8 days. For the same compound, the “time at which tumors gradually relapsed post-treatment” value [4] was “around 45 days”, the “time at which tumors reached nearly 2000 mm^3” value [4] was “around 72 days” and the “tumors relapsed and began to regrow” value ([4]; around 45 days post-treatment) was 6/6.
